Earlier results as cited in US20030040489A1, “Process for producing l-arabinose, l-arabinose-containing enzymatically processed products, diet foods, diabetic diet foods and fruit or vegetable juices and process for producting the same” (priority 1999, published 2003).

Tested on: disaccharide-decomposing enzymes (maltase, sucrase, etc.)
Conditions: enzymes of duodenal and small intestinal mucosae

In the case of `O=C[C@H](O)[C@@H](O)[C@@H](O)CO` [L-arabinose], the “mode of inhibition of disaccharide-decomposing enzymes” value is listed as “uncompetitively inhibits”.
